Experimental data taken from ChEMBL document CHEMBL6134914, “Novel Bicyclic Heterocycles as MRGPRX2 Antagonists for Treating Inflammatory Diseases” (ACS Med Chem Lett, 2025).

target: T1, Mas-related G-protein coupled receptor member X2 (Homo sapiens, UniProt Q96LB1); test: Inhibition of human MRGPRX2 expressed in CHO-K1 cells assessed as Ca2+ release incubated for 30 mins by FLIPR calcium mobilization assay; assay type: functional, cell-based
T1 sequence (Q96LB1 whole entry): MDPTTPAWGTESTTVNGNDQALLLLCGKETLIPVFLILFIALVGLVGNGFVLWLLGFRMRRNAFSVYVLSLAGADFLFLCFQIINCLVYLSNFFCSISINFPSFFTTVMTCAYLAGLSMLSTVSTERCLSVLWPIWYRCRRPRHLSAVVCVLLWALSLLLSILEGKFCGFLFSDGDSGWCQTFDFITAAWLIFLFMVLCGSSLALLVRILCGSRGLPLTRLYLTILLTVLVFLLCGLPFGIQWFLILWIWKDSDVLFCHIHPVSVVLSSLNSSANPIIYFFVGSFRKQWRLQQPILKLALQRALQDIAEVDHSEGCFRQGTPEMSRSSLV

IC50, 0.1 nM:
NS(=O)(=O)N1CC(CNc2cc(C(F)(F)F)nc3ccc(Cl)cc23)(c2ccc3ccccc3n2)C1, Cc1csc(C2(CNc3cc(C(F)(F)F)nc4ccc(Cl)cc34)CN(S(N)(=O)=O)C2)n1, NS(=O)(=O)N1CCC(CNc2cc(C(F)(F)F)nc3ccc(Cl)cc23)(c2ccc(F)cn2)CC1, NC(=O)N1CCC(CNc2cc(C(F)(F)F)nc3ccc(Cl)cc23)(c2ccc(F)cn2)C1 (stereo unspecified), NS(=O)(=O)N1CC(CNc2cc(C(F)(F)F)nc3ccc(Br)cc23)(c2ccc(F)cc2)C1, N#Cc1cnn(C2(CNc3cc(C(F)(F)F)nc4ccc(Cl)cc34)CN(C(N)=O)C2)c1
